Results as given in US7960436B2, “Substituted arylamino-1,2,3,4-tetrahydro naphthalenes and-2,3-dihydro-1H-indenes as potassium channel modulators” (Valeant Pharmaceuticals International, priority 2006, dated 2011).

system: potassium ion channels; assay: Rubidium (Rb+) efflux assay in NGF-differentiated PC-12 cells; assay type: cell-based; conditions: depolarization buffer with 15 mM KCl, 10 min at room temperature, read-out: EC50 (compound's concentration for 50% of maximal Rb+ efflux)
Procedure: Several typical compounds of this invention were assayed as potassium channel modulators by measuring rhubidium release.
Methods: PC-12 cells were grown at 37° C. and 5% CO2 in DMEM/F12 Medium supplemented with 10% horse serum, 5% fetal bovine serum, 2 mM glutamine, 100 U/ml penicillin, 100 U/ml streptomycin. They were plated in poly-D-lysine-coated 96-well cell culture microplates at a density of 40,000 cells/well and differentiated with 100 ng/ml NGF-7s for 2-5 days. For the assay, the medium was aspirated and the cells were washed once with 0.2 ml in wash buffer (25 mM HEPES, pH 7.4, 150 mM NaCl, 1 mM MgCl2, 0.8 mM NaH2PO4, 2 mM CaCl2). The cells were then loaded with 0.2 ml Rb^+ loading buffer (wash buffer plus 5.4 mM […], 5 mM glucose) and incubated at 37° C. for 2 h. Attached cells were quickly washed three times with buffer (same as Rb^+ loading buffer, but containing 5.4 mM KCl instead of RbCl) to remove extracellular Rb^+. Immediately following the wash, 0.2 ml of depolarization buffer (wash buffer plus 15 mM KCl) with or without compounds was added to the cells to activate efflux of potassium ion channels. After incubation for 10 min at room temperature, the supernatant was carefully removed and collected. Cells were lysed by the addition of 0.2 ml of lysis buffer (depolarization buffer plus 0.1% Triton X-100) and the cell lysates were also collected. If collected samples were not immediately analyzed for Rb^+ contents by atomic absorption spectroscopy (see below), they were stored at 4° C. without any negative effects on subsequent Rb^+ analysis.
The concentration of Rb^+ in the supernatants (Rb^+Sup) and cell lysates (Rb^+Lys) was quantified using an ICR8000 flame atomic absorption spectrometer (Aurora Biomed Inc., Vancouver, B.C.) under conditions defined by the manufacturer. One 0.05 ml samples were processed automatically from microtiter plates by dilution with an equal volume of Rb^+ sample analysis buffer and injection into an air-acetylene flame. The amount of Rb^+ in the sample was measured by absorption at 780 nm using a hollow cathode lamp as light source and a PMT detector. A calibration curve covering the range 0-5 mg/L Rb^+ in sample analysis buffer was generated with each set of plates. The percent Rb^+ efflux (F) was defined by F=[Rb^+Sup/(Rb^+Sup+Rb^+Lys)]×100% The effect (E) of a compound was defined by: E=[(Fc−Fb)/(Fs−Fb)]×100% where the Fc is the efflux in the presence of compound in depolarization buffer, Fb is the efflux in basal buffer, and Fs is the efflux in depolarization buffer, and. The effect (E) and compound concentration relationship was plotted to calculate an EC50 value, a compound's concentration for 50% of maximal Rb^+ efflux.

EC50 | SMILES
< 500 nM | CC(C)(C)CC(=O)Nc1cc2c(cc1N)C(Nc1ccc(C(F)(F)F)cc1)CC2 (stereo not shown)
< 500 nM | Nc1cc2c(cc1NC(=O)CCC1CCCC1)CCC2Nc1ccc(C(F)(F)F)cc1 (stereo not shown)
< 500 nM | Nc1cc2c(cc1NC(=O)CCC1CCCC1)CCC2Nc1ccc(F)cc1 (stereo not shown)

Continued, compound first:

SMILES | EC50
CCOC(=O)Nc1ccc2c(c1N)CCCC2Nc1ccc(C(F)(F)F)cc1 (stereo not shown) | > 5000 nM
CCOC(=O)Nc1cc2c(cc1N)C(Nc1ccc(C(F)(F)F)cc1)CCC2 (stereo not shown) | > 5000 nM
CC(C)(C)CC(=O)Nc1cc2c(cc1N)C(Nc1ccc(F)cc1)CC2 (stereo not shown) | 500 to 5000 nM
CCOC(=O)Nc1ccc2c(c1N)CCC2Nc1ccc(F)cc1 (stereo not shown) | 500 to 5000 nM
